Assay results reported in ChEMBL document CHEMBL5696443 (Clin Cancer Res, 2016).
Calls of active or inactive are those of the source. The calls are words filed in the database; no cut-off is given here.

Legend:
[1] = Protein binding in human plasma assessed as unbound fraction at 750 mg, administered once a day; format: ADME, cell-free
[2] = tested on: EML4-ALK (Homo sapiens), Q9UM73+Q9HC35 [S1206F]; conditions: BaF3, time 3-5 weeks
[3] = tested on: EML4-ALK (Homo sapiens), Q9UM73+Q9HC35 [V1180L]; conditions: BaF3, dose 1000.0 nmol/L, time 3-5 weeks
[4] = tested on: EML4-ALK (Homo sapiens), Q9UM73+Q9HC35 [L1198F]; conditions: BaF3, time 3-5 weeks
[5] = tested on: EML4-ALK (Homo sapiens), Q9UM73+Q9HC35 [S1206F]; conditions: BaF3, dose 1000.0 nmol/L, time 3-5 weeks
[6] = tested on: EML4-ALK (Homo sapiens), Q9UM73+Q9HC35 [S1206A]; conditions: BaF3, dose 200.0 nmol/L, time 3-5 weeks
[7] = tested on: EML4-ALK (Homo sapiens), Q9UM73+Q9HC35 [F1174C]; conditions: BaF3, time 3-5 weeks
[8] = tested on: EML4-ALK (Homo sapiens), Q9UM73+Q9HC35 [L1196M]; conditions: BaF3, dose 1000.0 nmol/L, time 3-5 weeks
[9] = tested on: EML4-ALK (Homo sapiens), Q9UM73+Q9HC35 [L1152P]; conditions: BaF3, dose 1000.0 nmol/L, time 3-5 weeks
[10] = tested on: EML4-ALK (Homo sapiens), Q9UM73+Q9HC35 [UNDEFINED MUTATION]; conditions: BaF3, dose 1000.0 nmol/L, time 3-5 weeks
[11] = Protein binding in human plasma at 750 mg, administered once a day; format: ADME, cell-free; conditions: read-out: PPB (converted)
[12] = tested on: EML4-ALK (Homo sapiens), Q9UM73+Q9HC35 [L1152R]; conditions: BaF3, dose 1000.0 nmol/L, time 3-5 weeks
[13] = tested on: EML4-ALK (Homo sapiens), Q9UM73+Q9HC35 [G1202R]; conditions: BaF3, dose 1000.0 nmol/L, time 3-5 weeks
[14] = tested on: EML4-ALK (Homo sapiens), Q9UM73+Q9HC35 [F1174C]; conditions: BaF3, dose 1000.0 nmol/L, time 3-5 weeks
[15] = tested on: EML4-ALK (Homo sapiens), Q9UM73+Q9HC35 [L1198F]; conditions: BaF3, dose 500.0 nmol/L, time 3-5 weeks
[16] = tested on: EML4-ALK (Homo sapiens), Q9UM73+Q9HC35 [L1152R]; conditions: BaF3, time 3-5 weeks
[17] = tested on: EML4-ALK (Homo sapiens), Q9UM73+Q9HC35 [L1152P]; conditions: BaF3, time 3-5 weeks
[18] = tested on: EML4-ALK (Homo sapiens), Q9UM73+Q9HC35 [E1210K]; conditions: BaF3, dose 1000.0 nmol/L, time 3-5 weeks
[19] = tested on: EML4-ALK (Homo sapiens), Q9UM73+Q9HC35 [F1174V]; conditions: BaF3, dose 1000.0 nmol/L, time 3-5 weeks
[20] = tested on: EML4-ALK (Homo sapiens), Q9UM73+Q9HC35 [S1206Y]; conditions: BaF3, time 3-5 weeks
in vitro = conditions: mouse, BaF3 cells
[21] = tested on: EML4-ALK (Homo sapiens), Q9UM73+Q9HC35 [S1206Y]; conditions: BaF3, dose 1000.0 nmol/L, time 3-5 weeks
[22] = tested on: EML4-ALK (Homo sapiens), Q9UM73+Q9HC35 [L1198F]; conditions: BaF3, dose 200.0 nmol/L, time 3-5 weeks
[23] = tested on: EML4-ALK (Homo sapiens), Q9UM73+Q9HC35 [F1174V]; conditions: BaF3, dose 200.0 nmol/L, time 3-5 weeks
[24] = tested on: EML4-ALK (Homo sapiens), Q9UM73+Q9HC35 [G1269A]; conditions: BaF3, dose 1000.0 nmol/L, time 3-5 weeks
[25] = tested on: EML4-ALK (Homo sapiens), Q9UM73+Q9HC35 [F1174I]; conditions: BaF3, dose 200.0 nmol/L, time 3-5 weeks
[26] = Toxicity in CB-17/SCID mouse implanted with ALK positive mouse BaF3 cells expressing EML4-ALK G1202R mutant assessed as effect on body weight at 50 mg/kg, po administered once daily and measured after 6 days; format: organism-based; conditions: in vivo, 144 h, time 6 day
[27] = tested on: EML4-ALK (Homo sapiens), Q9UM73+Q9HC35 [D1203N]; conditions: BaF3, dose 1000.0 nmol/L, time 3-5 weeks
[28] = tested on: EML4-ALK (Homo sapiens), Q9UM73+Q9HC35 [C1156Y]; conditions: BaF3, dose 1000.0 nmol/L, time 3-5 weeks
[29] = tested on: EML4-ALK (Homo sapiens), Q9UM73+Q9HC35 [I1171N]; conditions: BaF3, dose 1000.0 nmol/L, time 3-5 weeks
[30] = tested on: EML4-ALK (Homo sapiens), Q9UM73+Q9HC35 [G1202R]; conditions: BaF3, time 3-5 weeks
[31] = tested on: EML4-ALK (Homo sapiens), Q9UM73+Q9HC35 [F1174C]; conditions: BaF3, dose 200.0 nmol/L, time 3-5 weeks
[32] = tested on: EML4-ALK (Homo sapiens), Q9UM73+Q9HC35 [L1198F]; conditions: BaF3, dose 1000.0 nmol/L, time 3-5 weeks
[33] = tested on: EML4-ALK (Homo sapiens), Q9UM73+Q9HC35 [F1174L]; conditions: BaF3, dose 1000.0 nmol/L, time 3-5 weeks
BaF3 [34] = test: Antitumor activity against mouse BaF3 cells expressing native EML4-ALK implanted in mouse assessed as tumor growth inhibition at 50 mg/kg, po administered once daily and measured after 8 days relative to control; format: functional; conditions: BaF3, 192 h, time 8 day, read-out: TGI
BaF3 [35] = test: animal or person; conditions: Mus musculus, BaF3, po, 192 h, read-out: TGI
BaF3 [36] = test: animal or person; conditions: Mus musculus, BaF3, po, 192 h, read-out: TGI; remark: listed apart in the source
[37] = Protein binding in human plasma at 600 mg, administered twice a day; format: ADME, cell-free; conditions: read-out: PPB (converted)
BaF3 [38] = test: Antitumor activity against mouse BaF3 cells expressing native EML4-ALK implanted in mouse assessed as tumor regression at 60 mg/kg, po administered once daily and measured after 8 days relative to control; format: functional; conditions: time 8 day
[39] = Protein binding in human plasma assessed as unbound fraction at 600 mg, administered twice a day; format: ADME, cell-free
[40] = Toxicity in CB-17/SCID mouse implanted with ALK positive mouse BaF3 cells expressing EML4-ALK G1202R mutant assessed as effect on body weight at 60 mg/kg, po administered once daily and measured after 6 days; format: organism-based; conditions: in vivo, 144 h, time 6 day
[41] = Average plasma concentration in CB-17/SCID mouse implanted with mouse BaF3 cells expressing EML4-ALK G1202R mutant at 60 mg/kg, po administered once daily for 7 days by LC-MS/MS analysis; format: ADME, organism-based; conditions: in vivo, 168 h, time 7 day

Question: For `Cc1cc(Nc2ncc(Cl)c(Nc3ccccc3S(=O)(=O)C(C)C)n2)c(OC(C)C)cc1C1CCNCC1` [CERITINIB], which fraction unbound [1] is on record?
Answer: The fraction unbound was 0.028.

Question: And the IC90 [2]?
Answer: Its IC90 is 99 nM.

Question: And the inhibition [3]?
Answer: The inhibition was “Active”.

Question: And the IC90 [4]?
Answer: Its IC90 is 1320 nM.

Question: What about the inhibition [5] of the same molecule?
Answer: Its inhibition is “Active”.

Question: What about the inhibition [6] of the same molecule?
Answer: The inhibition was “inactive”.

Question: What about the IC90 [7] of the same molecule?
Answer: Its IC90 is 229 nM.

Question: What about the inhibition [8] of the same molecule?
Answer: Its inhibition is “Active”.

Question: What about the inhibition [9] of the same molecule?
Answer: The inhibition was “Active”.

Question: And the inhibition [10]?
Answer: Its inhibition is “Active”.

Question: What about the fraction unbound [11] of the same molecule?
Answer: The fraction unbound was 0.028.

Question: And the inhibition [12]?
Answer: Its inhibition is “Active”.

Question: What about the inhibition [13] of the same molecule?
Answer: The inhibition was “Active”.

Question: And the inhibition [14]?
Answer: Its inhibition is “Active”.

Question: And the inhibition [15]?
Answer: Its inhibition is “inactive”.

Question: What about the IC90 [16] of the same molecule?
Answer: Its IC90 is 1270 nM.

Question: And the IC90 [17]?
Answer: Its IC90 is 1230 nM.

Question: And the inhibition [18]?
Answer: Its inhibition is “Active”.

Question: What about the inhibition [19] of the same molecule?
Answer: The inhibition was “Active”.

Question: And the IC90 [20]?
Answer: The IC90 was 99 nM.

Question: What about the IC50 (in vitro) of the same molecule?
Answer: The IC50 was 1670 nM.

Question: And the IC90 (in vitro)?
Answer: The IC90 was 2.84 µM.

Question: What about the inhibition [21] of the same molecule?
Answer: The inhibition was “Active”.

Question: And the inhibition [22]?
Answer: The inhibition was “inactive”.

Question: What about the inhibition [23] of the same molecule?
Answer: Its inhibition is “inactive”.

Question: And the inhibition [24]?
Answer: Its inhibition is “Active”.

Question: What about the inhibition [25] of the same molecule?
Answer: Its inhibition is “inactive”.

Question: What about the Activity [26] of the same molecule?
Answer: Its Activity is “Non-Toxic”.

Question: What about the inhibition [27] of the same molecule?
Answer: Its inhibition is “Active”.

Question: What about the inhibition [28] of the same molecule?
Answer: The inhibition was “Active”.

Question: What about the inhibition [29] of the same molecule?
Answer: Its inhibition is “Active”.

Question: And the IC90 [30]?
Answer: Its IC90 is 1040 nM.

Question: And the inhibition [31]?
Answer: The inhibition was “inactive”.

Question: And the inhibition [32]?
Answer: The inhibition was “Active”.

Question: What about the inhibition [33] of the same molecule?
Answer: Its inhibition is “Active”.

Question: And the inhibition in vivo at 50 mg/kg (BaF3 [34])?
Answer: The inhibition in vivo at 50 mg/kg was 97%.

Question: What about the inhibition in vivo at 50 mg/kg (BaF3 [35]) of the same molecule?
Answer: Its inhibition in vivo at 50 mg/kg is 14%.

Question: With `CCc1cc2c(cc1N1CCC(N3CCOCC3)CC1)C(C)(C)c1[nH]c3cc(C#N)ccc3c1C2=O` [ALECTINIB] as the molecule, how does the inhibition in vivo at 60 mg/kg (BaF3 [36]) read?
Answer: Its inhibition in vivo at 60 mg/kg is 0%.

Question: What about the fraction unbound [37] of the same molecule?
Answer: The fraction unbound was 0.003.

Question: What about the Activity (BaF3 [38]) of the same molecule?
Answer: Its Activity is 95%.

Question: And the fraction unbound [39]?
Answer: Its fraction unbound is 0.003.

Question: What about the Activity [40] of the same molecule?
Answer: Its Activity is “Non-Toxic”.

Question: And the Cave [41]?
Answer: The Cave was 8.817 µM.

Question: What about the IC50 (in vitro) of the same molecule?
Answer: The IC50 was 2070 nM.

Question: What about the IC90 (in vitro) of the same molecule?
Answer: The IC90 was 7.46 µM.
